Experimental data reported in US8552013B2, “Heterocyclic compounds based on N6-substituted adenine, methods of their preparation, their use for preparation of drugs, cosmetic preparations and growth regulators, pharmaceutical preparations, cosmetic preparations and growth regulators containing these compounds” (USTAV Experimentalni Botaniky Akademie Ved Ceske Republiky, priority 2001, dated 2013).
“And” between values parts separate entries of the source, which are not always exact repeats. Equal entries are not always repeated. Where two headings read alike, the source gives them in different places.

Experiments:
[1] = system: Amaranthus caudatus cotyledon/hypocotyl explants; assay: Amaranthus bioassay, betacyanin content; type: in vivo; conditions: betacyanin content at the concentration with highest activity
Procedure: Standard Amaranthus bioassay was performed with several modifications. The seeds of Amaranthus caudatus var. atropurpurea were surface-sterilised in 10% N-chlorobenzenesulfonamide (w/v) for 10 min and washed 5 times in deionized water. They were placed in 14 cm Petri dishes containing paper tissues saturated with deionized water. After 72 h of cultivation at 25° C. in darkness, the roots of the seedlings were cut off. The explants, consisting of two cotyledons and hypocotyls, were placed in 5 cm Petri dishes on two layers of filter paper soaked in 1 ml of incubation medium containing 10 μmol NA2HPO4-KH2PO4, pH 6.8, 5 μmol tyrosine and the cytokinin to be tested. There were 20 explants per dish. The procedure was carried out under a green safe light in a darkroom. After a 48 h of incubation at 25° C. in darkness, betacyanin was extracted by freezing the explants in 4 ml […] acetic acid. The concentration of betacyanin was determined by comparing the absorbance at 537 nm and 620 nm as follows: ΔA=[…] nm-A620 nm. From the obtained data, the concentration with highest activity was selected for each compound tested. Relative activity of the compound at this concentration was calculated (Tab. 6). […] The values shown in table 8 are means of five replicates and the entire test was repeated twice. The cytokinins to be tested were dissolved in dimethylsulfoxide (DMSO) and the solution brought up to 10^-3M with distilled water. This stock was further diluted in the respective media used for the biotest to concentrations ranging from 10^-8M to 10^-4M.

[2] = system: Triticum aestivum cv. Hereward leaf tips; assay: Retention of chlorophyll in excised wheat leaf tips; type: in vivo; conditions: chlorophyll retention at the concentration with highest activity
Procedure: Seeds of winter wheat, Triticum aestivum cv. Hereward, were washed under running water for 24 hours and then sown on vermiculite soaked with Knop's solution. They were placed in the grown chamber at 25° C. with a 16/8 h light period at 50 μmol.m^−2.s^−1. After 7 days, the first leaf was fully developed and the second leaf had started to grow. A tip section of the first leaf, approximately 35 mm long, was removed from 5 seedlings and trimmed slightly to a combined weight of 100 mg. The basal ends of the five leaf tips were placed in the wells of a microtiter polystyrene plate containing 150 μl of a cytokinin solution each. The entire plate was inserted into a plastic box lined with paper tissues soaked in distilled water to prevent leaf sections from drying out. After a 96 h incubation in the dark at 25° C., the leaves were removed and chlorophyll extracted by heating at 80° C. for 10 min in 5 ml of 80% ethanol (v/v). The sample volume was then restored to 5 ml by the addition of 80% ethanol (v/v). The absorbency of the extract was recorded at 665 nm. In addition, chlorophyll extracts from fresh leaves and leaf tips incubated in deionised water were measured. From the obtained data, the concentration with highest activity was selected for each compound tested. Relative activity of the compound at this concentration was calculated (Tab. 6). The activity obtained for 10^−4 M 6-benzylaminopurine (BAP) was postulated as 100%. The values shown are means of five replicates and the whole experiment was repeated twice. The cytokinins to be tested were dissolved in dimethylsulfoxide (DMSO) and the solution brought up to 10^−3M with distilled water. This stock was further diluted in distilled water to concentrations ranging from 10^−8M to 10^−4M.

[3] = system: T-lymphoblastic leukemia cell line CEM; assay: Calcein AM cytotoxicity, CEM; type: cell-based, human
Description: (§1) One of the parameters used, as the basis for cytotoxicity assays, is the metabolic activity of viable cells. For example, a microtiter assay, which uses the Calcein AM, is now widely used to quantitate cell proliferation and cytotoxicity. For instance, this assay is used in drug screening programs and in chemosensitivity testing. Because only metabolically active cells cleave Calcein AM, these assays detect viable cells exclusively. The quantity of reduced Calcein AM corresponds to the number of vital cells in the culture.
(§2) The cells were maintained in Nunc/Corning 80 cm^2 plastic tissue culture flasks and cultured in cell culture medium (DMEM with 5 g/l glucose, 2 mM glutamine, 100 U/ml penicillin, 100 μg/ml streptomycin, 10% fetal calf serum and sodium bicarbonate).
(§3) The cell suspensions that were prepared and diluted according to the particular cell type and the expected target cell density (2.500-30.000 cells per well based on cell growth characteristics) were added by pipette (80 μl) into 96/well microtiter plates. Inoculates were allowed a pre-incubation period of 24 hours at 37° C. and 5% CO2 for stabilisation. Four-fold dilutions of the intended test concentration were added at time zero in 20 μl aliquots to the microtiter plate wells. Usually, test compound was evaluated at six 4-fold dilutions. […] All drug concentrations were examined in duplicates. Incubations of cells with the test compounds lasted for 72 hours at 37° C., in 5% CO2 atmosphere and 100% humidity. At the end of incubation period, the cells were assayed by using the Calcein AM. Ten microliters of the stock solution were pipetted into each well and incubated further for 1 hours. Fluorescence (FD) was measured with the Labsystem FIA Reader Fluoroscan Ascent (UK).

K-562 = assay: Calcein AM cytotoxicity, K-562; type: cell-based; conditions: read-out: IC 50, K-562
Description: as §1, §2, §3

B16-F0 melanoma = assay: Calcein AM cytotoxicity, B16-F0; type: cell-based; conditions: Mus musculus, B16F0, 72 h, read-out: IC 50, B16-F0
Description: as §1
(§4) Human T-lymphoblastic leukemia cell line CEM; promyelocytic HL-60 and monocytic U937 leukemias; breast carcinoma cell lines MCF-7, BT549, MDA-MB-231; glioblastoma U87MG cells; cervical carcinoma cells HELA; sarcoma cells U2OS and Saos2; hepatocellular carcinoma HepG2; mouse fibroblasts NIH3T3; mouse immortalized bone marrow macrophages B2.4 and B10A.4; P388D1 and L1210 leukemia; B16 and B16F10 melanomas were used for routine screening of compounds. The cells were maintained in Nunc/Corning 80 cm^2 plastic tissue culture flasks and cultured in cell culture medium (DMEM with 5 g/l glucose, 2 mM glutamine, 100 U/ml penicillin, 100 μg/ml streptomycin, 10% fetal calf serum and sodium bicarbonate).
(§5) The cell suspensions that were prepared and diluted according to the particular cell type and the expected target cell density (2.500-30.000 cells per well based on cell growth characteristics) were added by pipette (80 μl) into 96/well microtiter plates. Inoculates were allowed a pre-incubation period of 24 hours at 37° C. and 5% CO2 for stabilisation. Four-fold dilutions of the intended test concentration were added at time zero in 20 μl aliquots to the microtiter plate wells. Usually, test compound was evaluated at six 4-fold dilutions. In routine testing, the highest well concentration was […], but it can be the matter of change dependent on the agent. All drug concentrations were examined in duplicates. Incubations of cells with the test compounds lasted for 72 hours at 37° C., in 5% CO2 atmosphere and 100% humidity. At the end of incubation period, the cells were assayed by using the Calcein AM. Ten microliters of the stock solution were pipetted into each well and incubated further for 1 hours. Fluorescence (FD) was measured with the Labsystem FIA Reader Fluoroscan Ascent (UK). The tumour cell survival (GI50) was calculated using the following equitation: TCS═(FDdrug exposed well/mean FDcontrol wells)×100%. The GI50 value, the drug concentration lethal to 50% of the tumour cells, was calculated from the obtained dose response curves (FIG. 1).

[4] = system: breast carcinoma cell line MCF-7; assay: Calcein AM cytotoxicity, MCF7; type: cell-based, human; conditions: read-out: IC 50, MCF7
Description: as §1, §2, §3

[5] = system: promyelocytic HL-60 leukemia; assay: Calcein AM cytotoxicity, HL60; type: cell-based, human; conditions: read-out: IC 50, HL60
Description: as §1, §2, §3

[6] = system: tobacco callus Nicotiana tabacum L. cv. Wisconsin 38; assay: Cytokinin-dependent tobacco callus growth; type: cell-based; conditions: fresh callus weight at the concentration with highest activity
Procedure: Cytokinin-dependent tobacco callus Nicotiana tabacum L. cv. Wisconsin 38 was maintained at 25° C. in darkness on modified Murashige-Skoog medium, containing per 1 liter: 4 μmol nicotinic acid, 2.4 μmol pyridoxine hydrochloride, 1.2 μmol thiamine, 26.6 μmol glycine, 1.37 μmol glutamine, 1.8 μmol myo-inositol, 30 g of sucrose, 8 g of agar, 5.37 μmol α-naphtylacetic acid (NAA) and 0.5 μmol benzylaminopurine (BAP). Subcultivation was carried out every three weeks. Fourteen days before the bioassay, the callus tissue was transferred to the media without 6-benzylaminopurine (BAP). Biological activity was determined from the increase in fresh callus weight after four weeks of cultivation. Five replicates were prepared for each cytokinin concentration and the entire test was repeated twice. From the obtained data, the concentration with highest activity was selected for each compound tested. Relative activity of the compound at this concentration was calculated (Tab. 6). The activity obtained for 10^−4 M 6-benzylaminopurine (BAP) was postulated as 100%. The cytokinins to be tested were dissolved in dimethylsulfoxide (DMSO) and the solution brought up to 10^−3M with distilled water. This stock was further diluted in the respective media used for the biotest to concentrations ranging from 10^−8M to 10^−4M.

HOS = assay: Calcein AM cytotoxicity, HOS; type: cell-based
Description: as §1, §4, §5

[7] = system: human diploid fibroblasts (HCA cells); assay: Senescence, beta-galactosidase staining of human diploid fibroblasts; type: cell-based
Procedure: In this example, human diploid fibroblasts (HCA cells of various passage levels: passage 25—designated HCA25; passage 45—designated HCA45; passage 80—designated HCA80) were stained for β-galactosidase activity. The medium used for cell cultivation was removed, the cells were washed twice in […], and fixed in 2-3 ml of fixing solution comprised of a 2% formaldehyde and 0.2% glutaraldehyde in PBS. The cells were incubated at room temperature for 5 minutes, then washed twice with PBS. The cells were subsequently incubated at 37° C. (without CO2) for 1 to 16 hours in 2-3 ml of a solution comprising potassium ferricyanide (5 mM), potassium ferrocyanide (5 mM), MgCl2 (2 mM), X-gal (5-bromo-4-chloro-3-indolyl-β-D-galactopyranoside) (1 mg/ml), in citric/phosphate buffer, pH 6.0). […] In this experiment, senescent cells, but not other cells were stained blue due to the action of β-galactosidase on the substrate (FIG. 4).

SMILES | activity (%) [10^−5 mol · l^−1 BAP = 100%] [1] | Activity (%) [10^−4 mol · l^−1 BAP = 100%] [2] | IC50 ([3]; Homo sapiens, 72 h) [µM] | IC50 (K-562; Homo sapiens, K562, 72 h) [µM] | IC50 (B16-F0 melanoma) [µM] | IC50 ([4]; Homo sapiens, MCF7, 72 h) [µM] | IC50 ([5]; Homo sapiens, HL-60, 72 h) [µM] | Activity (%) [10^−4 mol · l^−1 BAP = 100%] [6] | further results
O=[N+]([O-])c1ccc(CNc2ncnc3nc[nH]c23)cc1 [6-(4-nitrobenzylamino)purine] | 25 (±2) % | 83 (±8) % | > 167 | > 167 | > 167 | > 167 | > 167 | – | –
Cc1cccc(CNc2ncnc3nc[nH]c23)c1 [6-(3-methylbenzylamino)purine] | 84 (±14) % | 111 (±16) % | > 167 | > 167 | 164 | 102 | > 167 | 79 (±5) % | –
Clc1ccccc1CNc1ncnc2nc[nH]c12 [6-(2-chlorobenzylamino)purine] | 109 (±8) % | 116.5 (±6.5) % | – | – | 16.9 | – | – | 93 (±4) % | –
CC(C)=CCNc1ncnc2nc[nH]c12 [IP, isopentenyladenine, reference compound] | – | – | – | – | – | – | – | – | IC50 ([3]; 72 hours): 92.2 µM; IC50 (HOS; 72 hours): > 167 µM; IC50 (K-562; 72 hours): 147 µM and 162 µM; IC50 ([4]; 72 hours): > 167 µM; IC50 ([5]; 72 hours): > 167 µM
c1coc(CNc2ncnc3[nH]cnc23)c1 [Kinetin, reference compound] | – | – | – | > 167 | – | > 167 | – | – | IC50 ([3]; Homo sapiens, 72 hours): 155 µM; IC50 (HOS; Homo sapiens, HOS, 72 h): > 167 µM; IC50 (K-562; Homo sapiens, K562, 72 hours): 164 µM
Oc1ccc(CNc2ncnc3nc[nH]c23)cc1O [6-(3,4-dihydroxybenzylamino)purine] | 8 (±3) % | – | > 167 | > 167 | > 167 | > 167 | > 167 | 4 (±1) % | SENESCENT CELLS (%) HCA25 ([7]; passage 25): 5%; SENESCENT CELLS (%) HCA45 ([7]; passage 45): 4%; SENESCENT CELLS (%) HCA80 ([7]; passage 80): 29%
Clc1cccc(CNc2ncnc3nc[nH]c23)c1 [6-(3-chlorobenzylamino)purine] | 96 (±5) % | 82 (±2) % | – | > 167 | – | – | – | 94 (±6) % | IC50 (HOS; Homo sapiens, HOS, 72 h): > 167 µM
COc1cc(CNc2ncnc3nc[nH]c23)ccc1O [6-(4-hydroxy-3-methoxybenzylamino)purine] | 10 (±2) % | – | > 167 | > 167 | > 167 | > 167 | > 167 | – | –
COc1ccc(CNc2ncnc3nc[nH]c23)cc1O [6-(3-hydroxy-4-methoxybenzylamino)purine] | 24 (±1) % | – | > 167 | > 167 | > 167 | > 167 | > 167 | – | –
Clc1ccc(CNc2ncnc3nc[nH]c23)cc1 [6-(4-chlorobenzylamino)purine] | 35 (±7) % | 64.5 (±13.5) % | > 167 | > 167 | – | > 167 | > 167 | 64 (±8) % | IC50 (HOS; Homo sapiens, HOS, 72 h): > 167 µM
C/C(=C/CNc1ncnc2nc[nH]c12)CO [cis Z, reference compound] | – | – | – | – | – | – | – | – | IC50 ([3]; 72 hours): > 167 µM; IC50 (HOS; 72 hours): > 167 µM; IC50 ([4]; 72 hours): > 167 µM; IC50 ([5]; 72 hours): > 167 µM
